Where a name gives a salt, the structure may show the parent alone. Read-outs that look alike come from different tables or passages of the source.
Assays:
human GLP-1R [1] = biological target: human GLP-1R (Homo sapiens, UniProt P43220, G168S); test: CHO GLP-1R Clone H6 cAMP HTRF agonist assay (Assay 1, high receptor density); format: cell-based; conditions: for EC50: CHO GLP-1R clone H6, cAMP HTRF, geometric mean; for Emax: read-out: Assay 1 Emax (%)
Summary of the method: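 EC50 values are reported as geometric means and Emax as arithmetic means across the listed number of replicates, both given to two significant figures.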

human GLP-1R [2] = biological target: human GLP-1R (Homo sapiens, UniProt P43220, L260F); test: CHO GLP-1R Clone C6 cAMP HTRF agonist assay (Assay 2, low receptor density); format: cell-based; conditions: for EC50: CHO GLP-1R clone C6, cAMP HTRF, geometric mean; for Emax: CHO GLP-1R clone C6, arithmetic mean, relative to saturating GLP-1 (1 μM)
human GLP-1R (Homo sapiens, UniProt P43220, L260F), sequence (P43220 24-463 L260F): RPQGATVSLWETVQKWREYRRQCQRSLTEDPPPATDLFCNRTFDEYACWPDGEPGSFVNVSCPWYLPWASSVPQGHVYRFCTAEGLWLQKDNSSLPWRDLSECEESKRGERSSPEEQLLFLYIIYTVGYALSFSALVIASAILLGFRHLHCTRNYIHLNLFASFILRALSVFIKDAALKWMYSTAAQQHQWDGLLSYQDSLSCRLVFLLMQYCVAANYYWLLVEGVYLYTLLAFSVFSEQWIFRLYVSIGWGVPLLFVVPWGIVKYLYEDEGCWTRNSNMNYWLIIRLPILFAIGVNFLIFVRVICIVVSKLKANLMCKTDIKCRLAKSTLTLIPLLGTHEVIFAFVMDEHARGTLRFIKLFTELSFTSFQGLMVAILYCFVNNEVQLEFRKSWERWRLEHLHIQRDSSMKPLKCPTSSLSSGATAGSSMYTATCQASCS
Excerpt: In Table 5 and Table 6, assay data are presented to two (2) significant figures as the geometric mean (EC50s) and arithmetic mean (Emax) based on the number of replicates listed (Number). A blank cell means there was no data for that Example or the Emax was not calculated.

[3] = CHO GLP-1R clone H6, arithmetic mean, relative to saturating GLP-1 (1 μM)

human GLP-1R (Homo sapiens, UniProt P43220, G168S), sequence (P43220 24-463 G168S): as the sequence (P43220 24-463 L260F) above, with G145S, F237L counted along it

SMILES: CO[C@H]1C[C@@H](Cn2c(CN3CCC(c4cccc(OCc5ccc(Cl)cc5F)n4)CC3)nc3ccc(C(=O)O)cc32)C1 [Compound 195B, 2-[(4-{6-[(4-chloro-2-fluorobenzyl)oxy]pyridin-2-yl}piperidin-1-yl)methyl]-1-[(cis-3-methoxycyclobutyl)methyl]-1H-benzimidazole-6-carboxylic acid]
- EC50 (human GLP-1R [1]): 110 nM
- Emax (human GLP-1R [1]; [3]): 68%
- EC50 (human GLP-1R [2]): 4400 nM
- Emax (human GLP-1R [2]): 110%

SMILES: COC[C@@H]1C[C@H]1Cn1c(CN2CCC(c3cccc(OCc4ccc(Cl)cc4F)n3)CC2)nc2ccc(C(=O)O)cc21 [Compound 197B, 2-[(4-{6-[(4-chloro-2-fluorobenzyl)oxy]pyridin-2-yl}piperidin-1-yl)methyl]-1-{[(1R,2R)-2-(methoxymethyl)cyclopropyl]methyl}-1H-benzimidazole-6-carboxylic acid]
- EC50 (human GLP-1R [1]): 8.1 nM
- Emax (human GLP-1R [1]; [3]): 74%
- EC50 (human GLP-1R [2]): 220 nM
- Emax (human GLP-1R [2]): 93%

SMILES: Cn1c(CN2CCC(c3cccc(OCc4ccc(Cl)cc4F)n3)CC2)nc2ccc(C(=O)O)nc21 [Compound 199B, 2-((4-(6-((4-Chloro-2-fluorobenzyl)oxy)pyridin-2-yl)piperidin-1-yl)methyl)-3-methyl-3H-imidazo[4,5-b]pyridine-5-carboxylic acid hydrochloride]
- EC50 (human GLP-1R [1]): 1.7 nM
- Emax (human GLP-1R [1]): 67%
- EC50 (human GLP-1R [2]): 45 nM
- Emax (human GLP-1R [2]): 83%

SMILES: O=C(O)c1cc2c(cn1)nc(CN1CCC(c3cccc(OCc4ccc(Cl)cc4F)n3)CC1)n2C[C@@H]1CCO1 [Compound 203B, 2-[(4-{6-[(4-chloro-2-fluorobenzyl)oxy]pyridin-2-yl}piperidin-1-yl)methyl]-1-[(2S)-oxetan-2-ylmethyl]-1H-imidazo[4,5-c]pyridine-6-carboxylic acid]
- EC50 (human GLP-1R [1]): > 15000 nM
- Emax (human GLP-1R [1]; [3]): 98%
- EC50 (human GLP-1R [2]): > 20000 nM

SMILES: O=C(O)c1cc2c(cn1)nc(CN1CCC(c3cccc(OCc4ccc(Cl)cc4F)n3)CC1)n2Cc1ncco1 [Compound 204B, 2-[(4-{6-[(4-chloro-2-fluorobenzyl)oxy]pyridin-2-yl}piperidin-1-yl)methyl]-1-(1,3-oxazol-2-ylmethyl)-1H-imidazo[4,5-c]pyridine-6-carboxylic acid]
- EC50 (human GLP-1R [1]): 18 nM
- Emax (human GLP-1R [1]; [3]): 88%
- EC50 (human GLP-1R [2]): 400 nM
- Emax (human GLP-1R [2]): 100%

SMILES: COCCn1c(CN2CCC(c3cccc(OCc4ccc(Cl)cc4F)n3)CC2)nc2cnc(C(=O)O)cc21 [Compound 205B, 2-[(4-{6-[(4-chloro-2-fluorobenzyl)oxy]pyridin-2-yl}piperidin-1-yl)methyl]-1-(2-methoxyethyl)-1H-imidazo[4,5-c]pyridine-6-carboxylic acid]
- EC50 (human GLP-1R [1]): 5.7 nM
- Emax (human GLP-1R [1]; [3]): 67%
- EC50 (human GLP-1R [2]): 100 nM
- Emax (human GLP-1R [2]): 79%

SMILES: Cn1c(CN2CCC(c3cccc(OCc4ccc(Cl)cc4F)n3)CC2)nc2cc(F)c(C(=O)O)cc21 [Compound 206B, 2-[(4-{6-[(4-chloro-2-fluorobenzyl)oxy]pyridin-2-yl}piperidin-1-yl)methyl]-5-fluoro-1-methyl-1H-benzimidazole-6-carboxylic acid]
- EC50 (human GLP-1R [1]): 38 nM
- EC50 (human GLP-1R [2]): 760 nM
- Emax (human GLP-1R [2]): 91%

SMILES: COCCn1c(CN2CCC(c3cccc(OCc4ccc(Cl)cc4F)n3)CC2)nc2ncc(C(=O)O)nc21 [Compound 207B, 2-[(4-{6-[(4-chloro-2-fluorobenzyl)oxy]pyridin-2-yl}piperidin-1-yl)methyl]-1-(2-methoxyethyl)-1H-imidazo[4,5-b]pyrazine-6-carboxylic acid]
- EC50 (human GLP-1R [1]): 5.7 nM
- Emax (human GLP-1R [1]; [3]): 78%
- EC50 (human GLP-1R [2]): 130 nM
- Emax (human GLP-1R [2]): 94%

SMILES: COCCn1c(CN2CCC(c3cccc(OCc4ccc(Cl)cc4F)n3)CC2)nc2ncc(C(=O)O)c(C)c21 [Compound 208B, 2-[(4-{6-[(4-chloro-2-fluorobenzyl)oxy]pyridin-2-yl}piperidin-1-yl)methyl]-1-(2-methoxyethyl)-7-methyl-1H-imidazo[4,5-b]pyridine-6-carboxylic acid]
- EC50 (human GLP-1R [1]): 1.7 nM
- Emax (human GLP-1R [1]; [3]): 82%
- EC50 (human GLP-1R [2]): 41 nM
- Emax (human GLP-1R [2]): 99%

SMILES: Cc1nc2nc(CN3CCC(c4cccc(OCc5ccc(Cl)cc5F)n4)CC3)n(C)c2cc1C(=O)O [Compound 209B, 2-[(4-{6-[(4-chloro-2-fluorobenzyl)oxy]pyridin-2-yl}piperidin-1-yl)methyl]-1,5-dimethyl-1H-imidazo[4,5-b]pyridine-6-carboxylic acid]
- EC50 (human GLP-1R [1]): 7 nM
- Emax (human GLP-1R [1]; [3]): 59%
- EC50 (human GLP-1R [2]): 190 nM
- Emax (human GLP-1R [2]): 80%

SMILES: COCCn1c(CN2CCC(c3cccc(OCc4ccc(C#N)cc4)n3)CC2)nc2cc(F)c(C(=O)O)cc21 [Compound 211B, 2-[(4-{6-[(4-cyanobenzyl)oxy]pyridin-2-yl}piperidin-1-yl)methyl]-5-fluoro-1-(2-methoxyethyl)-1H-benzimidazole-6-carboxylic acid]
- EC50 (human GLP-1R [1]): 50 nM
- Emax (human GLP-1R [1]; [3]): 81%
- EC50 (human GLP-1R [2]): 870 nM
- Emax (human GLP-1R [2]): 83%

SMILES: C[C@H]1CN(c2cccc(OCc3ccc(C#N)cc3F)n2)CCN1Cc1nc2ccc(C(=O)O)nc2n1Cc1ncco1 [Compound 215B, 2-{[(2S)-4-{6-[(4-cyano-2-fluorobenzyl)oxy]pyridin-2-yl}-2-methylpiperazin-1-yl]methyl}-3-(1,3-oxazol-2-ylmethyl)-3H-imidazo [4,5-b]pyridine-5-carboxylic acid]
- EC50 (human GLP-1R [1]): 3.4 nM
- Emax (human GLP-1R [1]; [3]): 73%
- Emax (human GLP-1R [2]): 89%

SMILES: O=C(O)c1ccc2nc(CN3CCC(c4cccc(OCc5ccc(Cl)cc5F)n4)CC3)n(C[C@H]3CCO3)c2n1 [Compound 216B, 2-[(4-{6-[(4-chloro-2-fluorobenzyl)oxy]pyridin-2-yl}piperidin-1-yl)methyl]-3-[(2R)-oxetan-2-ylmethyl]-3H-imidazo[4,5-b]pyridine-5-carboxylic acid]
- EC50 (human GLP-1R [1]): 0.47 nM
- Emax (human GLP-1R [1]; [3]): 77%
- EC50 (human GLP-1R [2]): 5 nM
- Emax (human GLP-1R [2]): 94%

SMILES: COCCn1c(CN2CCC(c3cccc(OCc4ccc(C)cc4)n3)CC2)nc2ccc(C(=O)O)cc21 [Compound 217B, Ammonium 2-((4-(6-((4-Methylbenzyl)oxy)pyridin-2-yl)piperidin-1-yl)methyl)-1-(2-methoxyethyl)-1H-benzo[d]imidazole-6-carboxylate]
- EC50 (human GLP-1R [1]): 1.5 nM
- Emax (human GLP-1R [1]; [3]): 73%
- EC50 (human GLP-1R [2]): 24 nM
- Emax (human GLP-1R [2]): 91%

SMILES: COCCn1c(CN2CCC(c3cccc(OCc4ccc(C#N)c(C)c4)n3)CC2)nc2ccc(C(=O)O)cc21 [Compound 218B, 2-((4-(6-((4-cyano-3-methylbenzyl)oxy)pyridin-2-yl)piperidin-1-yl)methyl)-1-(2-methoxyethyl)-1H-benzo[d]imidazole-6-carboxylic acid]
- EC50 (human GLP-1R [1]): 1.5 nM
- EC50 (human GLP-1R [2]): 29 nM
- Emax (human GLP-1R [2]): 95%

SMILES: COCCn1c(CN2CCC(c3cccc(OCc4cc(F)c(Cl)cc4F)n3)CC2)nc2ccc(C(=O)O)cc21 [Compound 219B, 2-((4-(6-((4-chloro-2,5-difluorobenzyl)oxy)pyridin-2-yl)piperidin-1-yl)methyl)-1-(2-methoxyethyl)-1H-benzo[d]imidazole-6-carboxylic acid]
- EC50 (human GLP-1R [1]): 0.3 nM
- Emax (human GLP-1R [1]; [3]): 93%
- EC50 (human GLP-1R [2]): 3.8 nM
- Emax (human GLP-1R [2]): 93%

SMILES: COCCn1c(CN2CCC(c3cccc(OCc4c(F)cc(Cl)cc4F)n3)CC2)nc2ccc(C(=O)O)cc21 [Compound 220B, 2-((4-(6-((4-chloro-2,6-difluorobenzyl)oxy)pyridin-2-yl)piperidin-1-yl)methyl)-1-(2-methoxyethyl)-1H-benzo[d]imidazole-6-carboxylic acid]
- EC50 (human GLP-1R [1]): 0.33 nM
- Emax (human GLP-1R [1]; [3]): 82%
- EC50 (human GLP-1R [2]): 13 nM
- Emax (human GLP-1R [2]): 110%
